# According to PubChem BioAssay (NCI):
#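 Cells were grown in 96-well plates and exposed to each compound for 48 hours at five concentrations; endpoints were interpolated linearly between bracketing concentrations, or set to the highest concentration if not reached. GI50 = concentration required for 50% inhibition of growth. TGI marks complete inhibition of growth.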
# Assays:
# Assay in all cases: DTP human tumour cell line panel, 48 h
# 786-0 renal = test system: 786-0 renal
# A498 renal = test system: A498 renal
# A549 NSCLC = test system: A549 NSCLC
# ACHN renal = test system: ACHN renal
# BT-549 breast = test system: BT-549 breast
# CAKI-1 renal = test system: CAKI-1 renal
# CCRF-CEM leukemia = test system: CCRF-CEM leukemia
# COLO 205 colon = test system: COLO 205 colon
# DU-145 prostate = test system: DU-145 prostate
# EKVX NSCLC = test system: EKVX NSCLC
# HCC-2998 colon = test system: HCC-2998 colon
# HCT-116 colon = test system: HCT-116 colon
# HCT-15 colon = test system: HCT-15 colon
# HL-60(TB) leukemia = test system: HL-60(TB) leukemia
# HOP-62 NSCLC = test system: HOP-62 NSCLC
# HOP-92 NSCLC = test system: HOP-92 NSCLC
# HS 578T breast = test system: HS 578T breast
# HT29 colon = test system: HT29 colon
# IGROV1 ovarian = test system: IGROV1 ovarian
# K-562 leukemia = test system: K-562 leukemia
# KM12 colon = test system: KM12 colon
# LOX IMVI melanoma = test system: LOX IMVI melanoma
# M14 melanoma = test system: M14 melanoma
# MALME-3M melanoma = test system: MALME-3M melanoma
# MCF7 breast = test system: MCF7 breast
# MDA-MB-231 breast = test system: MDA-MB-231 breast
# MDA-MB-435 = test system: MDA-MB-435
# MDA-N = test system: MDA-N
# MOLT-4 leukemia = test system: MOLT-4 leukemia
# NCI-H226 lung = test system: NCI-H226 lung
# NCI-H23 lung = test system: NCI-H23 lung
# NCI-H460 lung = test system: NCI-H460 lung
# NCI-H522 lung = test system: NCI-H522 lung
# NCI/ADR-RES ovarian = test system: NCI/ADR-RES ovarian
# OVCAR-3 ovarian = test system: OVCAR-3 ovarian
# OVCAR-4 ovarian = test system: OVCAR-4 ovarian
# OVCAR-5 ovarian = test system: OVCAR-5 ovarian
# OVCAR-8 ovarian = test system: OVCAR-8 ovarian
# PC-3 prostate = test system: PC-3 prostate
# RPMI-8226 leukemia = test system: RPMI-8226 leukemia
# SF-268 CNS = test system: SF-268 CNS
# SF-295 CNS = test system: SF-295 CNS
# SF-539 CNS = test system: SF-539 CNS
# SK-MEL-2 melanoma = test system: SK-MEL-2 melanoma
# SK-MEL-28 melanoma = test system: SK-MEL-28 melanoma
# SK-MEL-5 melanoma = test system: SK-MEL-5 melanoma
# SK-OV-3 ovarian = test system: SK-OV-3 ovarian
# SN12C renal = test system: SN12C renal
# SNB-19 CNS = test system: SNB-19 CNS
# SNB-75 CNS = test system: SNB-75 CNS
# SR leukemia = test system: SR leukemia
# SW-620 colon = test system: SW-620 colon
# T-47D breast = test system: T-47D breast
# TK-10 renal = test system: TK-10 renal
# U251 CNS = test system: U251 CNS
# UACC-257 melanoma = test system: UACC-257 melanoma
# UACC-62 melanoma = test system: UACC-62 melanoma
# UO-31 renal = test system: UO-31 renal
# RXF 393 renal = test system: RXF 393 renal
compound,measurement,setting,value
CC[C@@]1(OC(=O)CN)C(=O)OCc2c1cc1n(c2=O)Cc2c-1nc1cc3c(cc1c2CCl)OCO3,GI50,786-0 renal,10.2 nM
same,TGI,786-0 renal,> 33800 nM
same,GI50,A498 renal,66.1 nM
same,TGI,A498 renal,1240 nM
same,GI50,A549 NSCLC,20.1 nM
same,TGI,A549 NSCLC,> 100000 nM
same,GI50,ACHN renal,< 10 nM
same,TGI,ACHN renal,244 nM
same,GI50,BT-549 breast,91.8 nM
same,TGI,BT-549 breast,2540 nM
same,GI50,CAKI-1 renal,< 10 nM
same,TGI,CAKI-1 renal,1980 nM
same,GI50,CCRF-CEM leukemia,< 10 nM
same,TGI,CCRF-CEM leukemia,> 100000 nM
same,GI50,COLO 205 colon,761 nM
same,TGI,COLO 205 colon,3100 nM
same,GI50,DU-145 prostate,< 10 nM
same,TGI,DU-145 prostate,> 33600 nM
same,GI50,EKVX NSCLC,1840 nM
same,TGI,EKVX NSCLC,26500 nM
same,GI50,HCC-2998 colon,283 nM
same,TGI,HCC-2998 colon,3760 nM
same,GI50,HCT-116 colon,< 10 nM
same,TGI,HCT-116 colon,> 100000 nM
same,GI50,HCT-15 colon,372 nM
same,TGI,HCT-15 colon,10200 nM
same,GI50,HL-60(TB) leukemia,< 10 nM
same,GI50,HOP-62 NSCLC,< 10 nM
same,GI50,HOP-92 NSCLC,72.4 nM
same,TGI,HOP-92 NSCLC,7130 nM
same,GI50,HS 578T breast,762 nM
same,TGI,HS 578T breast,5500 nM
same,GI50,HT29 colon,52 nM
same,TGI,HT29 colon,1220 nM
same,GI50,IGROV1 ovarian,234 nM
same,TGI,IGROV1 ovarian,15100 nM
same,GI50,K-562 leukemia,64.2 nM
same,GI50,KM12 colon,120 nM
same,TGI,KM12 colon,390 nM
same,GI50,LOX IMVI melanoma,< 10 nM
same,TGI,LOX IMVI melanoma,5030 nM
same,GI50,M14 melanoma,10.2 nM
same,GI50,MALME-3M melanoma,50.1 nM
same,TGI,MALME-3M melanoma,4440 nM
same,GI50,MCF7 breast,< 10 nM
same,TGI,MCF7 breast,12600 nM
same,GI50,MDA-MB-231 breast,1900 nM
same,TGI,MDA-MB-231 breast,> 34300 nM
same,GI50,MDA-MB-435,160 nM
same,TGI,MDA-MB-435,4150 nM
same,GI50,MDA-N,88.5 nM
same,TGI,MDA-N,645 nM
same,GI50,MOLT-4 leukemia,< 10 nM
same,GI50,NCI-H226 lung,20.1 nM
same,TGI,NCI-H226 lung,397 nM
same,GI50,NCI-H23 lung,< 10 nM
same,TGI,NCI-H23 lung,88.5 nM
same,GI50,NCI-H460 lung,< 10 nM
same,TGI,NCI-H460 lung,4440 nM
same,GI50,NCI-H522 lung,25.7 nM
same,TGI,NCI-H522 lung,2190 nM
same,GI50,NCI/ADR-RES ovarian,< 10 nM
same,TGI,NCI/ADR-RES ovarian,58.3 nM
same,GI50,OVCAR-3 ovarian,372 nM
same,TGI,OVCAR-3 ovarian,4100 nM
same,GI50,OVCAR-4 ovarian,381 nM
same,TGI,OVCAR-4 ovarian,11300 nM
same,GI50,OVCAR-5 ovarian,1030 nM
same,TGI,OVCAR-5 ovarian,13000 nM
same,GI50,OVCAR-8 ovarian,< 10.5 nM
same,TGI,OVCAR-8 ovarian,354 nM
same,GI50,PC-3 prostate,113 nM
same,TGI,PC-3 prostate,21100 nM
same,GI50,RPMI-8226 leukemia,37.4 nM
same,TGI,RPMI-8226 leukemia,597 nM
same,GI50,SF-268 CNS,< 10 nM
same,TGI,SF-268 CNS,516 nM
same,GI50,SF-295 CNS,< 10 nM
same,TGI,SF-295 CNS,11200 nM
same,GI50,SF-539 CNS,< 10 nM
same,TGI,SF-539 CNS,< 31.8 nM
same,GI50,SK-MEL-2 melanoma,1240 nM
same,TGI,SK-MEL-2 melanoma,5040 nM
same,GI50,SK-MEL-28 melanoma,474 nM
same,TGI,SK-MEL-28 melanoma,20500 nM
same,GI50,SK-MEL-5 melanoma,< 11.8 nM
same,TGI,SK-MEL-5 melanoma,500 nM
same,GI50,SK-OV-3 ovarian,375 nM
same,TGI,SK-OV-3 ovarian,> 31600 nM
same,GI50,SN12C renal,< 11.7 nM
same,TGI,SN12C renal,3760 nM
same,GI50,SNB-19 CNS,< 10 nM
same,TGI,SNB-19 CNS,13700 nM
same,GI50,SNB-75 CNS,< 24.4 nM
same,GI50,SR leukemia,< 10 nM
same,TGI,SR leukemia,> 100000 nM
same,GI50,SW-620 colon,< 19.6 nM
same,TGI,SW-620 colon,32600 nM
same,GI50,T-47D breast,< 10 nM
same,TGI,T-47D breast,7790 nM
same,GI50,TK-10 renal,947 nM
same,TGI,TK-10 renal,7620 nM
same,GI50,U251 CNS,18.5 nM
same,TGI,U251 CNS,> 42900 nM
same,GI50,UACC-257 melanoma,1020 nM
same,TGI,UACC-257 melanoma,15100 nM
same,GI50,UACC-62 melanoma,< 10 nM
same,TGI,UACC-62 melanoma,2280 nM
same,GI50,UO-31 renal,< 10 nM
same,TGI,UO-31 renal,1440 nM
Cc1ccc(-c2cc(O)c3nc4ccccc4n3c2)cc1,TGI,786-0 renal,> 100000 nM
same,TGI,A498 renal,> 100000 nM
same,TGI,A549 NSCLC,> 100000 nM
same,TGI,BT-549 breast,> 100000 nM
same,TGI,CAKI-1 renal,> 100000 nM
same,TGI,CCRF-CEM leukemia,> 100000 nM
same,TGI,COLO 205 colon,> 100000 nM
same,TGI,DU-145 prostate,> 100000 nM
same,TGI,EKVX NSCLC,> 100000 nM
same,TGI,HCT-116 colon,> 100000 nM
same,TGI,HCT-15 colon,> 100000 nM
same,TGI,HL-60(TB) leukemia,> 100000 nM
same,TGI,HOP-62 NSCLC,> 100000 nM
same,TGI,HOP-92 NSCLC,> 100000 nM
same,TGI,HS 578T breast,> 100000 nM
same,TGI,HT29 colon,> 100000 nM
same,TGI,IGROV1 ovarian,> 100000 nM
same,TGI,K-562 leukemia,> 100000 nM
same,TGI,KM12 colon,> 100000 nM
same,TGI,LOX IMVI melanoma,> 100000 nM
same,TGI,M14 melanoma,> 100000 nM
same,TGI,MALME-3M melanoma,> 100000 nM
same,TGI,MCF7 breast,> 100000 nM
same,TGI,MDA-MB-231 breast,> 100000 nM
same,TGI,MDA-MB-435,> 100000 nM
same,TGI,MDA-N,> 100000 nM
same,TGI,MOLT-4 leukemia,> 100000 nM
same,TGI,NCI-H226 lung,> 100000 nM
same,TGI,NCI-H23 lung,> 100000 nM
same,TGI,NCI-H460 lung,> 100000 nM
same,TGI,NCI-H522 lung,> 100000 nM
same,TGI,NCI/ADR-RES ovarian,> 100000 nM
same,TGI,OVCAR-3 ovarian,> 100000 nM
same,TGI,OVCAR-4 ovarian,> 100000 nM
same,TGI,OVCAR-8 ovarian,> 100000 nM
same,TGI,PC-3 prostate,> 100000 nM
same,TGI,RPMI-8226 leukemia,> 100000 nM
same,TGI,RXF 393 renal,> 100000 nM
same,TGI,SF-268 CNS,> 100000 nM
same,TGI,SF-295 CNS,> 100000 nM
same,TGI,SF-539 CNS,> 100000 nM
same,TGI,SK-MEL-28 melanoma,> 100000 nM
same,TGI,SK-OV-3 ovarian,> 100000 nM
same,TGI,SN12C renal,> 100000 nM
same,TGI,SNB-19 CNS,> 100000 nM
same,TGI,SNB-75 CNS,> 100000 nM
same,TGI,SR leukemia,> 100000 nM
same,TGI,SW-620 colon,> 100000 nM
same,TGI,T-47D breast,> 100000 nM
same,TGI,TK-10 renal,> 100000 nM
same,TGI,U251 CNS,> 100000 nM
same,TGI,UACC-257 melanoma,> 100000 nM
same,TGI,UACC-62 melanoma,> 100000 nM
same,TGI,UO-31 renal,> 100000 nM
